The values below come from PubChem BioAssay AID1645865 (Buhrlage Lab, Dana-Farber Cancer Institute and Novartis …, 2021).

Calls of active or inactive are those of the source.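 Rule for the calls: active = maximal inhibition of the USP30 enzyme reaching 30% or more across the dose series; inactive = the rest.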

The target of this assay is Ubiquitin carboxyl-terminal hydrolase 30 (Homo sapiens) (UniProt Q70CQ3). The assay is described as follows: inhibitors of ubiquitin-specific protease 30 deubiquitylating enzyme, concentration dependence, in vitro biochemical, validation of primary hits (AID 1645865). The note with it: purified USP30, Ub-rhodamine cleavage, fluorescence, 2 h.
Sequence of Ubiquitin carboxyl-terminal hydrolase 30 (Homo sapiens) (Q70CQ3 whole entry, looked up): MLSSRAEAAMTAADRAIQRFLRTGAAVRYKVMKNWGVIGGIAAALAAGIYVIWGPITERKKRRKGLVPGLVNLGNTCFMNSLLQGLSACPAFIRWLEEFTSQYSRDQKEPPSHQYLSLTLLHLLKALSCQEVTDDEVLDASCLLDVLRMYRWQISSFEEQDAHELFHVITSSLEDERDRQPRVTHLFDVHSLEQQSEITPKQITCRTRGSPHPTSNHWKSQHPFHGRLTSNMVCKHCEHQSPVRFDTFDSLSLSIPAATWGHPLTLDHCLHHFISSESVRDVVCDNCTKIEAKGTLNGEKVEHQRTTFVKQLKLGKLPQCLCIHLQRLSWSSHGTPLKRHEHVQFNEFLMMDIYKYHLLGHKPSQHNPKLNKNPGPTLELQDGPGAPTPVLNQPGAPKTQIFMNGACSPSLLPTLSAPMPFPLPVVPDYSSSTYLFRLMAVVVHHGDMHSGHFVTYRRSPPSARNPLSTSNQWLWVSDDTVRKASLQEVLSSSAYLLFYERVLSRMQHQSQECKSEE
Turning to `COc1cccc(CCNC(=O)CCn2c(=O)c(C)nc3cc(C)c(C)cc32)c1`, the IC50 was > 50 µM (inactive).
For `CCCC(=O)N1CCC2(CC1)Nc1ccccc1NC2=O`, the IC50 is > 50 µM (inactive).
The figure for `O=C(COC(=O)Cn1cnc2ccccc21)Nc1ccc2c(c1)OCCO2` is > 50 µM (inactive); for `Cc1cc(C(=O)N2CCN(C3CCN(Cc4ccc(Cl)o4)CC3)C(=O)C2)c(C)o1` it is > 50 µM (inactive); for `O=C(Nc1ccc2c(c1)OCCO2)c1ccc(N2CCCCC2)nn1` it is > 50 µM (inactive).
As for `Cc1ccc(C(=O)N2CCCC3(C2)Nc2cccnc2NC3=NC2CCCC2)s1` (stereo not drawn), the figure is > 50 µM (inactive); as for `CC(C)=CCCC1(C)OC2=C(C(=O)c3cc(O)cc(O)c3C2=O)[C@H]2C=C(C)CC[C@H]21` (stereo partly drawn), > 50 µM (inactive).
`CCCCNC(=O)c1cc2cccnc2n(Cc2ccccc2)c1=O`: the IC50 was > 50 µM (inactive).
Regarding `NS(=O)(=O)c1cc(C(=O)OCC(=O)c2ccc3c(c2)OCCO3)ccc1Cl`, the IC50 was > 50 µM (inactive).
As for `CC[C@H](C)C[C@H]1CC[C@](O)([C@](C)(O)C(=O)N[C@@H]2C(=O)N3NCCC[C@@H]3C(=O)N(O)[C@@H](C)C(=O)NCC(=O)N3NCCC[C@H]3C(=O)N(O)[C@H](C)C(=O)O[C@H]2C(C)C)O[C@@H]1C`, the figure is 2.09 µM.
As for `O=S(=O)(c1cccc(F)c1)N1CCc2nc3ccccc3n2CC1`, the figure is 3.76 µM; as for `COc1ccc(C)cc1NC(=O)Cc1csc(NC(=O)c2ccc(=O)[nH]c2)n1`, > 50 µM (inactive).
As to `C=C[C@]1(C)C=C2C(=O)[C@]3(O)OC(=O)[C@@]4(CCCC(C)(C)[C@H]34)[C@@]2(O)CC1`, the half-inhibitory concentration (IC50) is 27.8 µM.
As for `COc1ccc(NC(=O)C2Oc3ccc(C)cc3NC2=O)cc1Cl` (stereo not drawn), the figure is 19.5 µM.
As for `CCc1ccc(NC(=O)Cc2nnc3cc(-c4nc(C)no4)ccn23)cc1`, the figure is 2.37 µM.
The figure for `O=C(Nc1nc2c(ccc3ccccc32)s1)c1cccc(Br)c1` is 2.44 µM; for `COc1ccc(CCNC(=O)COc2ncnc3oc(C)c(C)c23)cc1OC` it is > 50 µM (inactive); for `CCOC(=O)c1nc(Nc2ccc(OC)c(Cl)c2)c2ccccc2n1` it is 26.6 µM.
Turning to `Cc1ccccc1Cn1cc(SCC(=O)Nc2ccc3c(c2)OCCO3)c2ccccc21`, the IC50 is > 50 µM (inactive).
The figure for `COc1cc(NC(=O)c2ccc3c(c2)OCO3)ccc1-c1cc2ccccc2oc1=O` is 0.363 µM; for `CCC(=O)Nc1ccccc1-c1nc2ccccc2n(CC(=O)Nc2cc(OC)ccc2OC)c1=O` it is 18.1 µM.
Turning to `Cc1ccc(NC(=O)CNC(=O)c2cc3ccccc3o2)cc1`, the IC50 was 17.7 µM.
As for `CC(C)c1cc(Nc2cccc(F)c2)n2nc(-c3cccnc3)nc2n1`, the figure is 6.35 µM; as for `COc1ccc(OC)c(-c2cc(C(=O)Nc3c(C)nn(Cc4ccccc4)c3C)no2)c1`, > 50 µM (inactive); as for `N#Cc1ccc(NC(=O)c2ccc(S(=O)(=O)N3CCCCC3)cc2)cc1`, 8.97 µM.
As for `O=C(CCn1c(=O)c2ccccc2n(Cc2cc(=O)n3ccccc3n2)c1=O)NCCc1ccc(Cl)cc1`, the figure is 28.5 µM.
On to `Fc1cnc(N2CC[C@H]3CO[C@H](CNc4ncccn4)[C@H]3C2)nc1`, for which the IC50 was > 50 µM (inactive).
As for `CCCCCn1c(Sc2ccc(C)cc2)nc2c1c(=O)[nH]c(=O)n2C`, the figure is 11.3 µM; as for `Cc1c(C)n(-c2ccccc2)c2ncn(CC(=O)NCCCc3ccccc3)c(=O)c12`, 44.9 µM; as for `COc1ccc(C(=O)Nc2ccccc2C(=O)NCc2ccccc2)cc1`, 30.4 µM.
The figure for `c1ccc(CCN2CCc3nc4cccnc4cc3C2)nc1` is > 50 µM (inactive).
On to `CC1=C(c2ccc(F)cc2)S(=O)(=O)NC1=NCC(=O)Nc1cccc(F)c1`, for which the IC50 is 19.8 µM.
As for `COc1ccc(N2C(=O)[C@@H]3[C@H]4c5ccccc5C=CN4C(C(=O)Nc4ccc5c(c4)OCO5)[C@@H]3C2=O)cc1` (stereo partly drawn), the figure is > 50 µM (inactive).

For orientation: IC50 means the concentration that inhibits the measured activity by half.
